Holding throughout (format): physicochemical
Data set [1] can be described thus: Forced degradation study of indacaterol (RP-HPLC impurities). The conditions noted are these: for Total Impurities* (%): includes 2% process-related impurity. How it is done: A degraded sample panel was prepared to identify indacaterol degradation pathways and products. Stress conditions are outlined in Table 1.
One of 6N HCl, 6N NaOH, or 30% H2O2 (aqueous) were added to a suitable volume of 100 μg/mL indacaterol and diluted with water:methanol (50:50, v:v) to achieve a final indacaterol concentration of 10 μg/mL. Samples were stored at ambient temperature. At specified time points, acidic and basic hydrolysis (1 N HCl and 1 N NaOH, respectively) samples were neutralized (H2O2 samples were not quenched) and reversed-phase high performance liquid chromatography (RP-HPLC) was used to quantitate indacaterol impurities. All samples were diluted to 5 μg/mL prior to RP-HPLC analysis. Method parameters are outlined in Table 2.
Total impurities (process-related and product-related) of the indacaterol forced degradation study samples are presented in Table 3. Forced degradation impurity peaks were identified based on their retention time relative (RRT) to the indacaterol peak. Impurity peaks already present in the indacaterol (control group at T0; total peak area approximately 2%) were considered process-related, while additional peaks formed after the degradation were considered product-related.

Data set [2] in a line: Aqueous solubility of indacaterol and indacaterol maleate in water (orbital shaker, UV-Vis). The conditions noted are these: for pH after dissolution / Solubility: water, initial pH 7.1; for Solubility: shaken 12 hours, UV-Vis. The method, then:
Solubility studies of indacaterol and indacaterol maleate were performed using an orbital shaker method. Excess indacaterol was placed in a glass vial with water. The initial pH of the water was 7.1. Samples were shaken for 12 hours to ensure equilibrium was reached. After the 12 hour period, the vial was removed from the shaker and allowed to settle for 30 minutes. Then, the sample was filtered using a 0.2 μM polyvinylidene fluoride (PVDF) syringe filter; the initial 0.5 mL of filtrate was discarded. The pH was then measured and the concentration of the indacaterol was evaluated by UV-Vis.

Data set [3] is described as follows: Aqueous solubility of indacaterol with varying pH in citrate buffer (orbital shaker, UV-Vis). The conditions noted are these: aqueous citrate buffer 5 mM. The method, then: Solubility studies of indacaterol in solutions of varying pH were performed using an orbital shaker method. Excess indacaterol was placed in a glass vial with an aqueous citrate buffer (5 mM; prepared from citric acid and NaOH). Samples were shaken for 12 to 24 hours to ensure equilibrium was reached before checking and adjusting the pH (using 1 M HCl and NaOH) and placing samples back into the orbital shaker for an additional 12 hours. This process was repeated up to two times or until the desired pH was obtained. After the desired pH was reached, the vial was removed from the shaker and allowed to settle for 30 minutes. Then, the sample was filtered using a 0.2 μM PVDF syringe filter; the initial 0.5 mL of filtrate was discarded. The pH was then measured and the concentration of the indacaterol was evaluated by UV-Vis.

[4] abbreviates: Acidic Hydrolysis (1M HCl), 15 h, ambient temperature.
Where [5] appears, read: Basic Hydrolysis (1M NaOH), 15 h, ambient temperature.

The record followed here is US20250177372A1, “LIQUID FORMULATIONS OF INDACATEROL AND GLYCOPYRRONIUM” (AeroRx Therapeutics, Inc., priority 2022, published 2025).

Where a name gives a salt, the structure may show the parent alone.

One may read the Solubility as the dissolved amount per volume that the medium holds. On to `CCc1cc2c(cc1CC)CC(NC[C@H](O)c1ccc(O)c3[nH]c(=O)ccc13)C2` [Indacaterol, (R)-5-[2-(5,6-Diethylindan-2-ylamino)-1-hydroxyethyl]-8hydroxy-1H-quinolin-2-one], for which the “Total Peak Area (%)” value in data set [1] (Acidic Hydrolysis (1M HCl), 15 h) is given as 99.79%; in data set [1] (Acidic Hydrolysis (1M HCl), T0) it was 99.82%; in data set [1] (Basic Hydrolysis (1M NaOH), 15 h), 99.75%; in data set [1] (Basic Hydrolysis (1M NaOH), T0), 99.81%; in data set [1] (Control, T0), 99.85%; in data set [1] (Oxidation (1.2% H2O2), 7 h), 99.89%. Also, the “Total Peak Area (%)” value in data set [1] (Oxidation (1.2% H2O2), 29 h) came to 99.59%. Further, the “Indacaterol (%)” value is on record as 92.54% in data set [1] (setting [4]); 95.81% in data set [1] (Acidic Hydrolysis (1M HCl), T0); 92.06% in data set [1] (setting [5]); 95.82% in data set [1] (Basic Hydrolysis (1M NaOH), T0); 98.04% in data set [1] (Control, T0, 10 μg/mL in MeOH:H2O (50:50), ambient temperature); 97.03% in data set [1] (Oxidation (1.2% H2O2), 7 h). The “Indacaterol (%)” value in data set [1] (Oxidation (1.2% H2O2), 29 h) is recorded as 90.76%. In addition, the “Total Impurities* (%)” value in data set [1] (setting [4]) amounted to 7.25%; in data set [1] (Acidic Hydrolysis (1M HCl), T0) it was 4.01%; in data set [1] (setting [5]), 7.69%; in data set [1] (Basic Hydrolysis (1M NaOH), T0) it was 3.99%; in data set [1] (Control, T0), 1.81%; in data set [1] (Oxidation (1.2% H2O2), 7 h), 2.77%. Also, the “Total Impurities* (%)” value is on record as 8.83% in data set [1] (Oxidation (1.2% H2O2), 29 h) and “approximately 9%” in data set [1] (Oxidation (1.2% H2O2), 29 h, listed as indacaterol). Besides, the “Indacaterol (%), Change in % peak” value in data set [1] (Acidic Hydrolysis (1M HCl), 15 h vs T0) is given as −3.27%; in data set [1] (Basic Hydrolysis (1M NaOH), 15 h vs T0), −3.76%; in data set [1] (Oxidation (1.2% H2O2), 29 h vs 7 h) it was −6.27%. Moreover, the “degradation of indacaterol samples in aqueous solutions over time (FIG. 1)” value in data set [1] (forced degradation experiment, staggered chromatogram) is reported as “minimal degradation”. Moreover, in data set [2] (water at pH 7.1), the “solubility in water” value is given as “insoluble”. Also, in data set [2], the pH after dissolution is on record as 6.20. In addition, the Solubility in data set [2] is below 1 µg/mL. The “dependence of indacaterol solubility on pH” value in data set [3] is recorded as “increase with decreasing pH”.

Regarding `CCc1cc2c(cc1CC)CC(NC[C@H](O)c1ccc(O)c3[nH]c(=O)ccc13)C2` [Indacaterol maleate, indacaterol maleate], in data set [2], the pH after dissolution is listed as 3.30 and the “Solubility” value stood at 230 µg/mL.
